These results are taken from patent US9988430B2, “Stable GLP-1 based GLP-1/glucagon receptor co-agonists” (Novo Nordisk A/S, priority 2014, dated 2018).

The EC50 is the concentration at which the effect is half-maximal. As a reminder, the IC50 is the concentration that inhibits the measured activity by half.

Series [1] has as its target T1, human GLP-1 receptor (Homo sapiens, UniProt P43220).
T1 construct: expressed in transfected cells; host or cells: membranes of BHK cells, parent line BHKTS13, clone FCW467-12A
Briefly: Assay (I)(a): GLP-1 receptor potency, CRE luciferase reporter gene assay in BHK cells. The note with it: BHK cells expressing human GLP-1 receptor, read-out: EC50 GLP-1R. Type of series: cell-based. A digest of the protocol:
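BHK cells (clone FCW467-12A/KZ10-1), 5×10EE3/well, exposed 3 h at 37° C to compound at 1×10EE-13 to 1×10EE-6 M final in medium with 2% ovalbumin and 0.2% Pluronic F-68. Luciferase luminescence read; EC50 (pM) from four-parameter fit.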

The nature of series [2]: Assay (V): chemical stability assessment by RP-UPLC. Type of series: physicochemical. The settings on record: 14 days at 37° C. in phosphate buffer (pH 7.3). Here is the method: Assay (V): Chemical Stability Assessment
The purpose of this assay is to assess the chemical stability of the GLP-1 derivatives of the present invention in aqueous solutions.
Chemical stability of GLP-1 derivatives may be investigated by RP-UPLC separation and UV detection. Lyophilized samples are dissolved in a 8 mM Phosphate buffer pH 8.6, followed by adjustment to pH 7.3 using HCl to a final concentration of 333 μM. Samples are incubated for 14 days at 5° C. and 37° C. followed by RP-UPLC analysis. Purity is defined as the area percentage of the main peak in relation to the total area of all integrated peaks in each chromatogram. Purity loss, also referred to herein as chemical degradation, after 14 days at 37° C. is determined as the difference in purity between the samples incubated at 5° C. and 37° C., divided by the purity of the sample after incubation for 14 days at 5° C.
RP-UPLC analysis is performed using a Waters BEH130 2.1 mm×150 mm, 1.7 μm column operated at 50° C. and a flow rate of 0.4 mL/min using a mobile phase system consisting of A: 0.05% TFA in MQ-water, and B: 0.05% TFA in Acetonitrile. UV-detection is performed at 215 nm. The typical gradient profile used for most of the samples is shown below.
For some individual derivatives eluting at substantially different retention times compared with the majority of derivatives, some adjustments to the gradient profile are made to better enable purity assessment comparison across samples.

The target of series [3] is T2, human glucagon receptor (Homo sapiens, UniProt P47871).
T2 construct: expressed in transfected cells; host or cells: membranes of BHK cells, clone BHK hGCGR A3*25
Briefly: Assay (II)(b): glucagon receptor binding, [125I]-glucagon displacement, SPA on BHK membranes. The note with it: displacement of [125I]-glucagon, membranes with human glucagon receptor; read-out: IC50 GlucagonR. The method, then: Assay (II): GLP-1 and Glucagon Receptor Binding The purpose of this assay is to test the in vitro receptor binding activity of the GLP-1 derivatives of the invention. (b) Glucagon Receptor Binding The glucagon receptor (glucagonR) binding activity is a measure of affinity of a derivative for the human glucagon receptor. The glucagon receptor binding of each derivative were determined with competitive binding, displacing [^125I]-glucagon bound to glucagon receptors expressed in cell membranes associated with wheat germ agglutinin (WGA) scintillation proximity assay (SPA) beads. Each derivative was added in a series of concentrations to isolated membranes comprising the human glucagon receptor and displacement of the labelled ligand was monitored. The receptor binding was reported as the concentration at which half of the labelled ligand is displaced from the receptor, the IC^50 value. The following chemicals were used in the assay: DMEM w Glutamax (Gibco 61965-026), Pen/strep (Invitrogen 15140-122), G418 (Invitrogen 10131-027), Versene (Gibco 15040), 1 M Hepes (Gibco 15630), PBS (Invitrogen 14190-094), fetal calf serum (Invitrogen 16140-071), MgCl2 (Merck 1.05832.1000), EDTA (Invitrogen 15575-038), CaCl2 (Sigma, C5080), Tween 20 (Amresco 0850C335), ovalbumin (Sigma A5503), SPA particles (wheat germ agglutinin (WGA) SPA beads, Perkin Elmer RPNQ0001), [125I]-glucagon (produced in-house), OptiPlate™-96 (Packard 6005290). HME buffer consisted of 25 mM HEPES, 2 mM MgCl2 and 1 mM EDTA, and pH was adjusted to 7.4. Assay buffer consisted of 50 mM HEPES supplemented with 5 mM MgCl2, 1 mM CaCl2, 0.02% Tween 20 and 0.1% Ovalbumin, and pH was adjusted to 7.4. The cells used in this assay (clone BHK hGCGR A3*25) were BHK cells stable transfected with an expression plasmid comprising the cDNA encoding the human glucagon receptor. The cells were grown at 5% CO2 in DMEM, 10% fetal calf serum, 1% Pen/Strep (Penicillin/Streptomycin) and 1.0 mg/ml of the selection marker G418. To make a membrane preparation the cells were grown to approximately 80% confluence. The cells were washed twice in phosphate-buffered saline and harvested. The cells were pelleted using a brief centrifugation and the cell pellet was kept on ice. Lyse the cells by adding approx. 5 ml HME buffer, mix by pipetting and snap freeze in liquid nitrogen. Thaw quickly and add HME buffer to 10 ml. The cell pellet was homogenised with an ULTRA-THURRAX dispersing instrument for 20-30 seconds. The homogenate was centrifuged at 20.000×G, 4° C. for 10 minutes. The pellet was resuspended (homogenised) in 1-2 ml HME buffer. The protein concentration was determined. The membranes were aliquoted and snapfrozen in liquid nitrogen and stored at minus 80° C. • 1. For the receptor binding assay 50 μl of the assay buffer was added to each well of an assay plate. • 2. Test compounds were serially diluted to give the following concentrations: 8×10EE-7 M, 8×10EE-8 M, 8×10EE-9 M, 8×10EE-10 M, 8×10EE-11 M, 8×10EE-12 M and 8×10EE-13 M. Twenty-five μl were added to appropriate wells in the assay plate. • 3. Cell membrane aliquots were thawed and diluted to their working concentration. Fifty μl were added to each well in the assay plate. • 4. WGA SPA beads were suspended in assay buffer at 20 mg/ml. The suspension was diluted to 10 mg/ml in assay buffer just prior to addition to the assay plate. Fifty μl were added to each well in the assay plate. • 5. The incubation was started by adding 25 μl of 480 pM solution of [125I]-glucagon to each well of the assay plate. A 25 μl aliquot was reserved for measuring total counts/well. • 6. The assay plate was incubated for 2 h at 25° C. • 7. The assay plate was centrifuged for 10 min at 1500 rpm. • 8. The assay plate was read in a Perkin Elmer TopCount NXT instrument. Calculations The data from the TopCount instrument were transferred to GraphPad Prism software. The software averaged the values for the replicates and performed a non-linear regression. […]
(In general: Loss of bound radioactivity is the signal in a displacement assay; it reports binding, not function.)

Each structure is given as a SMILES string. *1 amine or outer side, *2 acyl side, *3 side chain or, on linkers, in order; H or OH if unused. Where a SMILES comes first, the peptide text is derived from it. Bridges are numbered along the chain shown (N, C = ends). Roman numbers before positions name the chains, in order. Side-chain parts run from the residue outwards. [ ]: non-standard residue; d: D form. The star is where a group is joined. C18 diacid = O=C(O)CCCCCCCCCCCCCCCCC(=O)*; γGlu = O=C(O)[C@H](CCC(=O)[*:2])N[*:1]; Desaminohistidyl = O=C(CCc1c[nH]cn1)*; Ac4c = NC1(C(=O)O)CCC1; AEEA = NCCOCCOCC(=O)O; Aib = CC(C)(N)C(=O)O

T1 sequence (P43220 24-463): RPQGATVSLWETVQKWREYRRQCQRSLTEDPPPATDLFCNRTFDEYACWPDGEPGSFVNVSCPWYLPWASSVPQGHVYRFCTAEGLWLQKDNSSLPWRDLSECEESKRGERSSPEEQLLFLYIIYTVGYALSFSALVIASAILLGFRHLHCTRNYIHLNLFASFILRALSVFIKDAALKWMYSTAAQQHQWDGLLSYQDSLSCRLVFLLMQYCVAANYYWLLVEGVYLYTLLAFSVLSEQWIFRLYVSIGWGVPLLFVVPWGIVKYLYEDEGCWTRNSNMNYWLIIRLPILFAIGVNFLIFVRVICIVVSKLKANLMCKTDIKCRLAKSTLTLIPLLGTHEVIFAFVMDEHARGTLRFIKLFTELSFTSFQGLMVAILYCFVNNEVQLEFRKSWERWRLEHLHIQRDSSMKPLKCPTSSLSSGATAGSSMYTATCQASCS
T2 sequence (P47871 26-477): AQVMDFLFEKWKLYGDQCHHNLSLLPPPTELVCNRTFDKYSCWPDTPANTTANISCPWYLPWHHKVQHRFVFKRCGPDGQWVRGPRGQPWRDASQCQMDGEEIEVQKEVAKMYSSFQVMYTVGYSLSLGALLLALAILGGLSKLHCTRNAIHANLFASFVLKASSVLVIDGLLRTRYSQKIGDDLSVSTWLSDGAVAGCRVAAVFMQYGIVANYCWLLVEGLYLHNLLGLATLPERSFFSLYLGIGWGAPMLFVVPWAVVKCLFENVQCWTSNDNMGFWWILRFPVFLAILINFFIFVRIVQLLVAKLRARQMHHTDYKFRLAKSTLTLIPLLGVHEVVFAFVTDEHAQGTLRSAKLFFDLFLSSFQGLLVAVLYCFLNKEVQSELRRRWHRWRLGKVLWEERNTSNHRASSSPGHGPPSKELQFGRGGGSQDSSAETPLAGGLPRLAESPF

`CC[C@H](C)[C@H](NC(=O)[C@H](Cc1ccccc1)NC(=O)[C@H](CCC(=O)O)NC(=O)[C@H](CCCNC(=N)N)NC(=O)[C@H](C)NC(=O)[C@H](C)NC(=O)[C@H](CCC(N)=O)NC(=O)[C@H](CCC(=O)O)NC(=O)[C@H](CCC(=O)O)NC(=O)[C@H](CC(C)C)NC(=O)[C@H](Cc1ccc(O)cc1)NC(=O)[C@H](CCCCN)NC(=O)[C@H](CO)NC(=O)[C@H](Cc1ccc(O)cc1)NC(=O)[C@H](CC(=O)O)NC(=O)[C@H](CO)NC(=O)[C@@H](NC(=O)[C@H](Cc1ccccc1)NC(=O)[C@@H](NC(=O)CNC(=O)[C@H](Cc1c[nH]cn1)NC(=O)C1(NC(=O)CCc2c[nH]cn2)CCC1)[C@@H](C)O)[C@@H](C)O)C(=O)N[C@@H](C)C(=O)N[C@@H](Cc1c[nH]c2ccccc12)C(=O)N[C@@H](CC(C)C)C(=O)N[C@@H](CC(C)C)C(=O)N[C@@H](CCCCN)C(=O)N[C@@H](CCCCNC(=O)CC[C@H](NC(=O)COCCOCCNC(=O)CC[C@H](NC(=O)COCCOCCNC(=O)CC[C@H](NC(=O)COCCOCCNC(=O)CC[C@H](NC(=O)CC[C@H](NC(=O)CCCCCCCCCCCCCCCCC(=O)O)C(=O)O)C(=O)O)C(=O)O)C(=O)O)C(=O)O)C(N)=O` [Example 21, N^ε35-[(4S)-4-carboxy-4-[[2-[2-[2-[[(4S)-4-carboxy-4-[[2-[2-[2-[[(4S)-4-carboxy-4-[[2-[2-[2-[[(4S)-4-carboxy-4-[[(4S)-4-carboxy-4-(17-carboxyheptadecanoylamino)butanoyl]amino]butanoyl]amino]ethoxy]ethoxy]acetyl]amino]butanoyl]amino]ethoxy]ethoxy]acetyl]amino]butanoyl]amino]ethoxy]ethoxy]acetyl]amino]butanoyl]-[Imp7,Acb8,His9,Tyr16,Lys18,Glu22,Arg26,Leu33,Lys35]-GLP-1-(7-35)-peptide amide] (Desaminohistidyl-[Ac4c]HGTFTSDYSKYLEEQAAREFIAWLLKK([γGlu-AEEA-γGlu-AEEA-γGlu-AEEA-γGlu-γGlu-C18 diacid])-NH2): the concentration for a half-maximal effect (EC50) in series [1] turned out to be 3 pM. In addition, the “Chemical stability: Chemical degradation over 14 days at 37° C.” value in series [2] was determined as 1.6%.

Regarding `CC[C@H](C)[C@H](NC(=O)[C@H](Cc1ccccc1)NC(=O)[C@H](CCC(=O)O)NC(=O)[C@H](CCCNC(=N)N)NC(=O)[C@H](C)NC(=O)[C@H](C)NC(=O)[C@H](CCCNC(=N)N)NC(=O)[C@H](CCCNC(=N)N)NC(=O)[C@H](CCC(=O)O)NC(=O)[C@H](CC(C)C)NC(=O)[C@H](Cc1ccc(O)cc1)NC(=O)[C@H](CCCCN)NC(=O)[C@H](CO)NC(=O)[C@H](Cc1ccc(O)cc1)NC(=O)[C@H](CC(=O)O)NC(=O)[C@H](CO)NC(=O)[C@@H](NC(=O)[C@H](Cc1ccccc1)NC(=O)[C@@H](NC(=O)CNC(=O)[C@H](Cc1c[nH]cn1)NC(=O)C1(NC(=O)CCc2c[nH]cn2)CCC1)[C@@H](C)O)[C@@H](C)O)C(=O)N[C@@H](C)C(=O)N[C@@H](Cc1c[nH]c2ccccc12)C(=O)N[C@@H](CC(C)C)C(=O)N[C@@H](CC(C)C)C(=O)N[C@@H](CCCCN)C(=O)N[C@@H](CCCCNC(=O)CC[C@H](NC(=O)COCCOCCNC(=O)CC[C@H](NC(=O)COCCOCCNC(=O)CC[C@H](NC(=O)COCCOCCNC(=O)CC[C@H](NC(=O)CC[C@H](NC(=O)CCCCCCCCCCCCCCCCC(=O)O)C(=O)O)C(=O)O)C(=O)O)C(=O)O)C(=O)O)C(N)=O` [Example 24, N^ε35-[(4S)-4-carboxy-4-[[2-[2-[2-[[(4S)-4-carboxy-4-[[2-[2-[2-[[(4S)-4-carboxy-4-[[2-[2-[2-[[(4S)-4-carboxy-4-[[(4S)-4-carboxy-4-(17-carboxyheptadecanoylamino)butanoyl]amino]butanoyl]amino]ethoxy]ethoxy]acetyl]amino]butanoyl]amino]ethoxy]ethoxy]acetyl]amino]butanoyl]amino]ethoxy]ethoxy]acetyl]amino]butanoyl]-[Imp7,Acb8,His9,Tyr16,Lys18,Arg22,Arg23,Arg26, Leu33, Lys35]-GLP-1-(7-35)-peptide amide] (Desaminohistidyl-[Ac4c]HGTFTSDYSKYLERRAAREFIAWLLKK([γGlu-AEEA-γGlu-AEEA-γGlu-AEEA-γGlu-γGlu-C18 diacid])-NH2), the EC50 in series [1] turned out to be 8 pM. Further, the “Chemical stability: Chemical degradation over 14 days at 37° C.” value in series [2] is listed as 2.2%.

Turning to `CC[C@H](C)[C@H](NC(=O)[C@H](Cc1ccccc1)NC(=O)[C@H](CCC(=O)O)NC(=O)[C@H](CCCNC(=N)N)NC(=O)[C@H](C)NC(=O)[C@H](C)NC(=O)[C@H](CCC(N)=O)NC(=O)[C@H](CCC(=O)O)NC(=O)[C@H](CCC(=O)O)NC(=O)[C@H](CC(C)C)NC(=O)[C@H](Cc1ccc(O)cc1)NC(=O)[C@H](CCCCN)NC(=O)[C@H](CO)NC(=O)[C@@H](NC(=O)[C@H](CC(=O)O)NC(=O)[C@H](CO)NC(=O)[C@@H](NC(=O)[C@H](Cc1ccccc1)NC(=O)[C@@H](NC(=O)CNC(=O)[C@H](Cc1c[nH]cn1)NC(=O)C(C)(C)NC(=O)CCc1c[nH]cn1)[C@@H](C)O)[C@@H](C)O)C(C)C)C(=O)N[C@@H](C)C(=O)N[C@@H](Cc1c[nH]c2ccccc12)C(=O)N[C@@H](CC(C)C)C(=O)N[C@@H](CC(C)C)C(=O)N[C@@H](CCCCNC(=O)CNC(=O)[C@H](CO)NC(=O)[C@H](CCC(=O)O)NC(=O)CNC(=O)[C@H](CO)NC(=O)CC[C@H](NC(=O)CC[C@H](NC(=O)CCCCCCCCCCCCCCCCC(=O)O)C(=O)O)C(=O)O)C(=O)N[C@H](C(=O)O)[C@@H](C)O` [Example 25, N^ε34-[2-[[(2S)-2-[[(2S)-4-carboxy-2-[[2-[[(2S)-2-[[(4S)-4-carboxy-4-[[(4S)-4-carboxy-4-(17-carboxyheptadecanoylamino)butanoyl]amino]butanoyl]amino]-3-hydroxypropanoyl]amino]acetyl]amino]butanoyl]amino]-3-hydroxypropanoyl]amino]acetyl]-[Imp7,Aib8,His9,Lys18,Glu22,Arg26,Leu33,Thr35]-GLP-1-(7-35)-peptide] (I: Desaminohistidyl-[Aib]HGTFTSDVSKYLEEQAAREFIAWLLKT-OH / II: {C18 diacid-γGlu-γGlu}-SGESG; amide I:27-II:C), the IC50 in series [3] worked out at 18800 pM.
